Measurements from patent publication US9107410B2, “Pesticidal compositions and processes related thereto” (Dow AgroSciences LLC, priority 2011, dated 2015).
Read-outs that look alike come from different tables or passages of the source.

Experiments:
Type in all cases: in vivo
[1] = tested on: Corn Earworm (CEW) (Helicoverpa zea); assay: Bioassay on corn earworm (CEW), 128-well diet tray assay; conditions: 168 h, read-out: % Mortality CEW 50 μg/cm^2
Protocol: (§1) Certain molecules disclosed in this document were tested against BAW and CEW using procedures described in the following examples. In the reporting of the results, the “BAW & CEW Rating Table” was used (See Table Section).
Bioassays on CEW (Helicoverpa zea)
Bioassays on CEW were conducted using a 128-well diet tray assay. One to five second instar CEW larvae were placed in each well (3 mL) of the diet tray that had been previously filled with 1 mL of artificial diet to which 50 μg/cm^2 of the test compound (dissolved in 50 μL of 90:10 acetone-water mixture) had been applied (to each of eight wells) and then allowed to dry. Trays were covered with a clear self-adhesive cover, and held at 25° C., 14:10 light-dark for five to seven days. Percent mortality was recorded for the larvae in each well; activity in the eight wells was then averaged. The results are indicated in the table entitled “Table: Bio Results” (See Table Section).

[2] = tested on: Green Peach Aphid (GPA) (Myzus persicae); assay: Bioassay on green peach aphid (GPA), foliar spray on cabbage seedlings; conditions: 72 h, read-out: % Mortality GPA 200 ppm
Protocol: Certain molecules disclosed in this document were tested against GPA using procedures described in the following example. In the reporting of the results, the “GPA Rating Table” was used (See Table Section).
Cabbage seedlings grown in 3-inch pots, with 2-3 small (3-5 cm) true leaves, were used as test substrate. The seedlings were infested with 20-50 GPA (wingless adult and nymph stages) one day prior to chemical application. Four pots with individual seedlings were used for each treatment. Test compounds (2 mg) were dissolved in 2 mL of acetone/methanol (1:1) solvent, forming stock solutions of 1000 ppm test compound. The stock solutions were diluted 5× with 0.025% Tween 20 in H2O to obtain the solution at 200 ppm test compound. A hand-held aspirator-type sprayer was used for spraying a solution to both sides of […] leaves until runoff. Reference plants (solvent check) were sprayed with the diluent only containing 20% by volume of acetone/methanol (1:1) solvent. Treated plants were held in a holding room for three days at approximately 25° C. and ambient relative humidity (RH) prior to grading. Evaluation was conducted by counting the number of live aphids per plant under a microscope. Percent Control was measured by using Abbott's correction formula (W. S. Abbott, “A Method of Computing the Effectiveness of an Insecticide” J. Econ. Entomol. 18 (1925), pp. 265-267) as follows. Corrected % Control=100*(X−Y)/X • where • X=No. of live aphids on solvent check plants and • Y=No. of live aphids on treated plants

[3] = tested on: Beet Armyworm (BAW) (Spodoptera exigua); assay: Bioassay on beet armyworm (BAW), 128-well diet tray assay; conditions: 168 h, read-out: % Mortality BAW 50 μg/cm^2
Protocol: as §1
Bioassays on BAW (Spodoptera exigua)
Bioassays on BAW were conducted using a 128-well diet tray assay. One to five second instar BAW larvae were placed in each well (3 mL) of the diet tray that had been previously filled with 1 mL of artificial diet to which 50 μg/cm^2 of the test compound (dissolved in 50 μL of 90:10 acetone-water mixture) had been applied (to each of eight wells) and then allowed to dry. Trays were covered with a clear self-adhesive cover, and held at 25° C., 14:10 light-dark for five to seven days. Percent mortality was recorded for the larvae in each well; activity in the eight wells was then averaged. The results are indicated in the table entitled “Table: Bio Results” (See Table Section).

[4] = 50 μg/cm^2 on artificial diet, second instar larvae, 25° C., five to seven days, average of eight wells
[5] = 200 ppm foliar spray on cabbage seedlings, graded after three days, Abbott corrected % control

Row | SMILES | mortality at 50 µg/cm2 [1, 4] | mortality at 200 ppm [2, 5] | mortality at 50 µg/cm2 [3, 4] | mortality at 50 µg/cm2 [1] | mortality at 200 ppm ([2]; foliar) | mortality at 50 µg/cm2 [3]
1 | FC(F)(F)Oc1ccc(-n2cnc(-c3ccc(C4CC4NC(=S)Nc4ccccc4)cc3)n2)cc1 (centres unmarked) [Compound 1, 1-phenyl-3-(2-{4-[1-(4-trifluoromethoxyphenyl)-1H-[1,2,4]triazol-3-yl]phenyl}cyclopropyl)thiourea] | 50 to 100% | 0% | 50 to 100% |  |  | 
2 | FC(F)(F)Oc1ccc(-n2cnc(-c3ccc(C4CC4NC(=S)Nc4c(Cl)cccc4Cl)cc3)n2)cc1 (centres unmarked) [Compound 2, 1-(2,6-Dichlorophenyl)-3-(2-{4-[1-(4-trifluoromethoxyphenyl)-1H-[1,2,4]triazol-3-yl]phenyl}cyclopropyl)thiourea] | 50 to 100% | 0 to 80% | 50 to 100% |  |  | 
3 | COc1ccc(NC(=S)NC2CC2c2ccc(-c3ncn(-c4ccc(OC(F)(F)F)cc4)n3)cc2)c(C)c1 (centres unmarked) [Compound 3, 1-(4-Methoxy-2-methylphenyl)-3-(2-{4-[1-(4-trifluoromethoxyphenyl)-1H-[1,2,4]triazol-3-yl]phenyl}cyclopropyl)thiourea] | 50 to 100% | 0 to 80% | 50 to 100% |  |  | 
4 | Cc1cc(Cl)ccc1NC(=S)NC1CC1c1ccc(-c2ncn(-c3ccc(OC(F)(F)F)cc3)n2)cc1 (centres unmarked) [Compound 4, 1-(4-Chloro-2-methylphenyl)-3-(2-{4-[1-(4-trifluoromethoxyphenyl)-1H-[1,2,4]triazol-3-yl]phenyl}cyclopropyl)thiourea] | 50 to 100% | 0% | 50 to 100% |  |  | 
5 | FC(F)(F)Oc1ccc(-n2cnc(-c3ccc(C4CC4NC(=S)Nc4ccccc4Cl)cc3)n2)cc1 (centres unmarked) [Compound 5, 1-(2-Chlorophenyl)-3-(2-{4-[1-(4-trifluoromethoxyphenyl)-1H-[1,2,4]triazol-3-yl]phenyl}cyclopropyl)thiourea] | 50 to 100% | 0% | 50 to 100% |  |  | 
6 | CCc1cccc(CC)c1NC(=S)NC1CC1c1ccc(-c2ncn(-c3ccc(OC(F)(F)F)cc3)n2)cc1 (centres unmarked) [Compound 6, 1-(2,6-Diethylphenyl)-3-(2-{4-[1-(4-trifluoromethoxyphenyl)-1H-[1,2,4]triazol-3-yl]phenyl}cyclopropyl)thiourea] | 50 to 100% | 0 to 80% | 50 to 100% |  |  | 
7 | CN(C)c1ccc(NC(=S)NC2CC2c2ccc(-c3ncn(-c4ccc(OC(F)(F)F)cc4)n3)cc2)cc1 (centres unmarked) [Compound 7, 1-(4-Dimethylaminophenyl)-3-(2-{4-[1-(4-trifluoromethoxyphenyl)-1H-[1,2,4]triazol-3-yl]phenyl}cyclopropyl)thiourea] | 50 to 100% | 0% | 50 to 100% |  |  | 
8 | FC(F)(F)Oc1ccc(-n2cnc(-c3ccc(C4CC4NC(=S)Nc4ccc(C(F)(F)F)cc4)cc3)n2)cc1 (centres unmarked) [Compound 8, 1-(2-{4-[1-(4-Trifluoromethoxyphenyl)-1H-[1,2,4]triazol-3-yl]phenyl}-cyclopropyl)-3-(4-trifluoromethylphenyl)thiourea] | 50 to 100% | 0 to 80% | 50 to 100% |  |  | 
9 | Cc1cc(C)c(NC(=S)NC2CC2c2ccc(-c3ncn(-c4ccc(OC(F)(F)F)cc4)n3)cc2)c(C)c1 (centres unmarked) [Compound 9, 1-(2-{4-[1-(4-Trifluoromethoxyphenyl)-1H-[1,2,4]triazol-3-yl]phenyl}-cyclopropyl)-3-(2,4,6-trimethylphenyl)thiourea] | 50 to 100% | 0% | 50 to 100% |  |  | 
10 | COc1ccc(NC(=S)NC2CC2c2ccc(-c3ncn(-c4ccc(OC(F)(F)F)cc4)n3)cc2)c(OC)c1 (centres unmarked) [Compound 10, 1-(2,4-Dimethoxyphenyl)-3-(2-{4-[1-(4-trifluoromethoxyphenyl)-1H-[1,2,4]triazol-3-yl]phenyl}cyclopropyl)thiourea] | 50 to 100% | 0 to 80% | 50 to 100% |  |  | 
11 | Cc1ccc(NC(=S)NC2CC2c2ccc(-c3ncn(-c4ccc(OC(F)(F)F)cc4)n3)cc2)c(C)c1 (centres unmarked) [Compound 11, 1-(2,4-Dimethylphenyl)-3-(2-(4-(1-(4-(trifluoromethoxy)phenyl)-1H-1,2,4-triazol-3-yl)phenyl)cyclopropyl)thiourea] | 50 to 100% | 0 to 80% | 50 to 100% |  |  | 
12 | Cc1cccc(C)c1NC(=S)NC1CC1c1ccc(-c2ncn(-c3ccc(OC(F)(F)F)cc3)n2)cc1 (centres unmarked) [Compound 12, 1-(2,6-Dimethylphenyl)-3-(2-(4-(1-(4-(trifluoromethoxy)phenyl)-1H-1,2,4-triazol-3-yl)phenyl)cyclopropyl)thiourea] | 50 to 100% | 0 to 80% | 50 to 100% |  |  | 
13 | COc1ccc(NC(=S)NC2CC2c2ccc(-c3ncn(-c4ccc(OC(F)(F)F)cc4)n3)cc2)c(C(C)C)c1 (centres unmarked) [Compound 13, 1-(2-Isopropyl-4-methoxyphenyl)-3-(2-(4-(1-(4-(trifluoromethoxy)phenyl)-1H-1,2,4-triazol-3-yl)phenyl)cyclopropyl)thiourea] | 50 to 100% | 0% | 50 to 100% |  |  | 
14 | COc1cc(C)c(NC(=S)NC2CC2c2ccc(-c3ncn(-c4ccc(OC(F)(F)F)cc4)n3)cc2)c(C)n1 (centres unmarked) [Compound 14, 1-(6-Methoxy-2,4-dimethylpyridin-3-yl)-3-(2-(4-(1-(4-(trifluoromethoxy)-phenyl)-1H-1,2,4-triazol-3-yl)phenyl)cyclopropyl)thiourea] | 50 to 100% | 0 to 80% | 50 to 100% |  |  | 
15 | Cc1cccc(C)c1/N=C(/NC1CC1c1ccc(-c2ncn(-c3ccc(OC(F)(F)F)cc3)n2)cc1)SCOC(=O)C(C)C (centres unmarked) [Compound 15, (Z)-(N′-(2,6-dimethylphenyl)-N-(2-(4-(1-(4-(trifluoromethoxy)phenyl)-1H-1,2,4-triazol-3-yl)phenyl)cyclopropyl)-carbamimidoylthio)methyl isobutyrate] |  | 0 to 80% |  |  |  | 
16 | Cc1cc(C)c(/N=C(/NC2CC2c2ccc(-c3ncn(-c4ccc(OC(F)(F)F)cc4)n3)cc2)SCOC(=O)C(C)C)c(C)c1 (centres unmarked) [Compound 16, (Z)-(N′-Mesityl-N-(2-(4-(1-(4-(trifluoromethoxy)phenyl)-1H-1,2,4-triazol-3-yl)phenyl)cyclopropyl)carbamimidoylthio)methyl isobutyrate] |  | 0% |  |  |  | 
17 | CC(C)(C)OC(=O)NC1CC1c1ccc(-c2ncn(-c3ccc(OC(F)(F)F)cc3)n2)cc1 (centres unmarked) [Compound 17, tert-Butyl 2-(4-(1-(4-(trifluoromethoxy)phenyl)-1H-1,2,4-triazol-3-yl)phenyl)-cyclopropylcarbamate] | 50 to 100% | 0% | 50 to 100% |  |  | 
18 | COC(=O)NC1CC1c1ccc(-c2ncn(-c3ccc(OC(F)(F)F)cc3)n2)cc1 (centres unmarked) [Compound 18, Methyl 2-(4-(1-(4-(trifluoromethoxy)phenyl)-1H-1,2,4-triazol-3-yl)phenyl)cyclopropyl-carbamate] |  |  |  | 0 to 50% | 0% | 0%
19 | CC(OC(=O)NC1CC1c1ccc(-c2ncn(-c3ccc(OC(F)(F)F)cc3)n2)cc1)c1ccccc1 (centres unmarked) [Compound 19, 1-Phenylethyl 2-(4-(1-(4-(trifluoromethoxy)phenyl)-1H-1,2,4-triazol-3-yl)phenyl)-cyclopropylcarbamate] |  |  |  | 50 to 100% | 0 to 80% | 0%
20 | CC(OC(=O)NC1CC1c1ccc(-c2ncn(-c3ccc(OC(F)(F)F)cc3)n2)cc1)c1ccccn1 (centres unmarked) [Compound 20, 1-(Pyridin-2-yl)ethyl 2-(4-(1-(4-(trifluoromethoxy)phenyl)-1H-1,2,4-triazol-3-yl)phenyl)-cyclopropylcarbamate] |  |  |  | 50 to 100% | 0 to 80% | 50 to 100%
